The values below come from patent US9309196B2, “Indole derivatives and process for their preparation” (Ramot at Tel-Aviv University Ltd., priority 2010, dated 2016).

The test deals with T1, monomeric Aβ1-42 (Homo sapiens, UniProt P05067).
T1 construct: Aβ1-42 (#60-0-80, American Peptide, Sunnyvale, Calif. USA); purchased American Peptide, Sunnyvale, Calif; USA #60-0-80
T1 sequence (P05067 672-713 limits assumed): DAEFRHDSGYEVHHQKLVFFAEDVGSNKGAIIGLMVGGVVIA
Put plainly: Surface plasmon resonance (SPR) binding of compounds to immobilized Aβ1-42 monomers (Biacore X100). The conditions noted are these: compounds 0.1 nM to 300 nM, 25° C., steady-state analysis, repeated tests. The method, then: Aβ monomers were covalently coupled to one flow cell of CM7 sensor chips (GE Lifesciences, Uppsala, Sweden) via primary amines using the Amine Coupling Kit (GE Lifesciences, Uppsala, Sweden). As a control, ethanolamine was immobilized on the reference channel. […] One RU represents about 1 pg/mm^2 of the analytes on the surface matrix of the sensor chip.
Concentrations were tested in duplicate.
The RUs elicited by the compound injected into the ethanolamine control flow cell was set as reference response and subtracted from the RUs elicited by the same compound injected to the Aβ saturated flow cell. The relationships between each RU obtained at the steady state of binding (plateau of the binding curve) and each concentration of the compound were plotted.
After the analyte injection was stopped, HBS-EP buffer was flowed over the chip for 180 s to allow the bound analyte to dissociate from the immobilized Aβ and the dissociation curves were obtained.
The dissociation equilibrium constant KD of the analyte to the immobilized Aβ was determined from the steady-state levels estimating the maximum RU Rmax and calculating the KD as the concentration of the compound that elicited one-half of the Rmax.
A general note: Surface plasmon resonance follows binding to a sensor surface in real time, without labels.
Broadly, the IC50 is the concentration that inhibits the measured activity by half. For `CC(=O)N[C@@H](/C=C/C(C)(C)C(=O)O)Cc1c[nH]c2ccccc12` [Example 5, (E)-(R)-5-Acetylamino-6-(1H-indol-3-yl)-2,2-dimethyl-hex-3-enoic-acid], the IC50 amounted to 42.1 nM.
With `CNC(=O)C(C)(C)/C=C/[C@H](N)Cc1c[nH]c2ccccc12` [Example 4, (E)-(R)-5-Amino-6-(1H-indol-3-yl)-2,2-dimethyl-hex-3-enoic-acid-methylamide], the IC50 came to 6.8 nM.
Next, `CC(C)(/C=C/[C@H](N)Cc1c[nH]c2ccccc12)C(N)=O` [Example 3, (E)-(R)-5-Amino-6-(1H-indol-3-yl)-2,2-dimethyl-hex-3-enoic acid amide]: 0.5 nM.
